For one experiment, the system named is lipid peroxidation. The experiment in a line: Inhibition of lipid peroxidation in vitro, thiobarbituric acid test (synaptosomal membrane fraction, Fenton's reagent). The conditions noted are these: read-out: Lipid peroxidation inhibition [IC50], iron(II) chloride/hydrogen peroxide, 30 min at 37° C.
The next experiment relates to LDL oxidation. The experiment can be described thus: Inhibition of LDL oxidation in vitro, method of Esterbauer et al (1988), CuSO4, 234 nm. Type of experiment: biochemical. As to conditions: 1 μM, LDL isolated from human whole blood, room temperature, at least 8 h. The method, then: The measurement of in vitro inhibition of LDL oxidation was performed in accordance with Esterbauer et al (1988): Effect of peroxidative conditions on human plasma low density lipoproteins. In: Eicosanoids, lipid peroxidation and cancer (ed. Nigam et al), pages 203-214, Springer-Verlag,Berlin, Heidelberg, New York.
The values listed in Table 2 for inhibition of LDL oxidation represent examples for cardiovascular activities.
Testing of the substances for inhibitory action with regard to LDL oxidation, by the method of Esterbauer et al (1988), was carried out as follows:
The reaction mixture is incubated at room temperature over a period of at least 8 h and followed spectral photometrically (the absorption maximum of the oxidized LDL is at 234 nm). In accordance with the extinction changes, recorded at the measurement wavelength of 234 nm, in the presence or absence of test substances or in comparison of the native and the oxidized LDL, definitive statements on the influence on the oxidized LDL by the action of the test substance.
Dosage-action analysis of the test substances.

This note sets out measurements from US5914325A, “Steroids with radical-attracting aromatic substituents, process for the production thereof and pharmaceutical compounds containing the said substances” (Jenapharm GmbH, priority 1993, dated 1999).

pIC50: −log10 of the molar value.

`COc1ccc2c(c1)CC[C@@H]1[C@@H]2CC[C@@]2(C)[C@H]1CC[C@@]2(O)Cc1cc(C)c(O)c(C)c1`: the pIC50 in the experiment on lipid peroxidation is 5.63. As to `Cc1cc(C2=C[C@@H]3[C@H](CC[C@]4(C)[C@@H](O)CC[C@@H]34)c3ccc(O)cc32)cc(C)c1O` [6-2',6'-Dimethyl-4'-hydroxyphenylestra-1,3,5(10),6-tetraene-3,17β-diol], in the experiment on LDL oxidation, the “LDL oxidation inhibition (prolongation of lag phase in min)” value (“LDL oxidation inhibition” for short) was 180 min. Also, in the experiment with lipid peroxidation, the pIC50 was 6.02. On to `CN(C)c1ccc(C2=C[C@@H]3[C@H](CC[C@]4(C)[C@@H](O)CC[C@@H]34)c3ccc(O)cc32)cc1` [6-4'-N,N-Dimethylaminophenylestra-1,3,5(10),6-tetraene-3,17β-diol], for which, in the experiment on lipid peroxidation, the pIC50 is 5.56. Consider `C[C@]12CC[C@H]3[C@@H](C[C@@H](c4ccc(O)cc4)C4=CC(=O)CC[C@@]43C)[C@@H]1CC[C@@H]2O` [6β-4'-Hydroxyphenyl-17β-hydroxyandrost-4-ene-3-one], for which the pIC50 in the experiment with lipid peroxidation is 4.22.

In the case of `CN(C)c1ccc(C2=CC[C@H]3[C@@H]4CCc5cc(O)ccc5[C@H]4CC[C@]23C)cc1` [17-4'-N,N-Dimethylaminophenylestra-1,3,5(10),16-tetraene-3-ol], the pIC50 in the experiment on lipid peroxidation was 5.35. `COc1ccc2c(c1)CCC1C2CCC2(C)C1CCC2(O)C[Se]c1c(C(C)(C)C)cc(O)cc1C(C)(C)C` (stereo not drawn) [17α2',6'-Di-tert.-butyl-4'-hydroxyphenylselenomethyl-3-methoxyestra-1,3,5(10)-triene-17-ol]: the pIC50 in the experiment with lipid peroxidation is 5.30. On the same count and under the same terms, the result for `COc1ccc2c(c1)CCC1C2CCC2(C)C1CCC2(O)Cc1c(C(C)(C)C)cc(O)cc1C(C)(C)C` (stereo not drawn) [17α-2',6'-Di-tert.-butyl-4'-hydroxyphenylmethyl-3-methoxyestra-1,3,5(10)-triene-17-ol] reads 4.90; that for `Cc1cc(O)cc(C)c1CC1(O)CCC2C3CCC4=CC(=O)CCC4C3CCC21C` (stereo not drawn) [17α-2',6'-Dimethyl-4'-hydroxyphenylmethyl-17-hydroxyestr-4-ene-3-one], 5.72.

As to `COc1ccc2c(c1)CCC1C2CCC2(C)C1CCC2(O)C[Se]c1c(C)cc(O)cc1C` (stereo not drawn) [17α-2',6'-Dimethyl-4'-hydroxyphenylselenomethyl-3-methoxyestra-1,3,5(10)-triene-17-ol], the pIC50 in the experiment with lipid peroxidation is 5.71.

With `C[C@]12CC[C@H]3[C@@H](CCC4=CC(=O)CC[C@@H]43)[C@@H]1CC[C@@]2(O)COc1ccc(O)cc1` [17α-4'-Hydroxyphenoxymethyl-17-hydroxyestr-4-ene-3-one], the pIC50 in the experiment with lipid peroxidation was 5.00. On the same count and under the same terms, for `COC1(OC)CCC2=C(CC[C@@H]3[C@@H]2CC[C@@]2(C)[C@H]3CC[C@@]2(O)CSc2ccc(O)cc2)C1` [17α-4'-Hydroxyphenylmercaptomethyl-3,3-dimethoxyestr-5(10)-ene-17-ol] the value was 5.84. Consider `COc1ccc2c(c1)CC[C@@H]1[C@@H]2CC[C@@]2(C)[C@H]1CC[C@@]2(O)CSc1ccc(O)cc1` [17α-4'-Hydroxyphenylmercaptomethyl-3-methoxyestra-1,3,5(10)-triene-17-ol], for which the pIC50 in the experiment on lipid peroxidation was 5.36. On the same count and under the same terms, for `CC1CC(=O)CC2CCC3C(CCC4(C)C3CCC4(O)CSc3ccc(O)cc3)C12C` (stereo not drawn) [17α-4'-Hydroxyphenylmercaptomethyl-17-hydroxy-1α-methyl-5α-androstan-3-one] the value was 5.42; for `C[C@]12CCC(=O)C[C@@H]1CC[C@@H]1[C@@H]2CC[C@@]2(C)[C@H]1CC[C@@]2(O)CSc1ccc(O)cc1` [17α-4'-Hydroxyphenylmercaptomethyl-17-hydroxy-5α-androstan-3-one], 5.32. The same measure, in the same setting: the result for `C[C@]12CCC(=O)C=C1CC[C@@H]1[C@@H]2CC[C@@]2(C)[C@H]1CC[C@@]2(O)CSc1ccc(O)cc1` [17α-4'-Hydroxyphenylmercaptomethyl-17-hydroxyandrost-4-ene-3-one] reads 4.96; that for `C[C@]12CC[C@H]3[C@@H](CCC4=CC(=O)CC[C@@H]43)[C@@H]1CC[C@@]2(O)CSc1ccc(O)cc1` [17α-4'-Hydroxyphenylmercaptomethyl-17-hydroxyestr-4-ene-3-one], 5.07. With `C[C@]12CC=C3c4ccc(O)cc4CC[C@H]3[C@@H]1CC[C@@]2(O)CSc1ccc(O)cc1` [17α-4'-Hydroxyphenylmercaptomethylestra-1,3,5(10),9(11)-tetraene-3,17-diol], the “LDL oxidation inhibition” value with LDL oxidation is on record as 270 min. In addition, in the experiment with lipid peroxidation, the pIC50 was 6.36. As for `C[C@]12CC[C@@H]3c4ccc(O)cc4CC[C@H]3[C@@H]1CC[C@@]2(O)CSc1ccc(O)cc1` [17α-4'-Hydroxyphenylmercaptomethylestra-1,3,5(10)-triene-3,17-diol], in the experiment on LDL oxidation, the “LDL oxidation inhibition” value was 120 min. Further, the pIC50 in the experiment with lipid peroxidation is 5.66. Take `COc1ccc2c(c1)CC[C@@H]1[C@@H]2CC[C@@]2(C)[C@H]1CC[C@@]2(O)Cc1ccc(O)cc1` [17α-4'-Hydroxyphenylmethyl-3-methoxyestra-1,3,5(10)-triene-17-ol]: the pIC50 with lipid peroxidation was 5.58. In the case of `C[C@]12CC[C@H]3[C@@H](CCC4=CC(=O)CC[C@@H]43)[C@@H]1CC[C@@]2(O)Cc1ccc(O)cc1` [17α-4'-Hydroxyphenylmethyl-17-hydroxyestr-4-ene-3-one], the pIC50 in the experiment with lipid peroxidation was 4.30. For `C[C@]12CC=C3c4ccc(O)cc4CC[C@H]3[C@@H]1CC[C@@]2(O)Cc1ccc(O)cc1` [17α-4'-Hydroxyphenylmethylestra-1,3,5(10),9(11)-tetraene-3,17-diol], the “LDL oxidation inhibition” value in the experiment on LDL oxidation came out at 230 min. Besides, the pIC50 with lipid peroxidation was 6.49. Consider `C[C@]12CC[C@@H]3c4ccc(O)cc4CC[C@H]3[C@@H]1CC[C@@]2(O)Cc1ccc(O)cc1` [17α-4'-Hydroxyphenylmethylestra-1,3,5(10)-triene-3,17-diol], for which the “LDL oxidation inhibition” value with LDL oxidation came to 125 min. The pIC50 in the experiment on lipid peroxidation is 5.39. The corresponding values for `CN(C)c1ccc([C@]2(O)CC[C@H]3[C@@H]4CCc5cc(O)ccc5[C@H]4CC[C@@]32C)cc1` [17α-4'-N,N-Dimethylaminophenylestra-1,3,5(10)-triene-3,17-diol] are 170 min and 6.02.

For `COc1ccc2c(c1)CC[C@@H]1[C@@H]2CC[C@@]2(C)[C@H]1CC[C@@]2(O)Cc1ccc(N(C)C)cc1` [17α-4'-N,N-Dimethylaminophenylmethyl-3-methoxyestra-1,3,5(10)-triene-17-ol], the “LDL oxidation inhibition” value in the experiment with LDL oxidation came to 195 min. The pIC50 in the experiment with lipid peroxidation is 5.79. With `CN(C)c1ccc(C[C@]2(O)CC[C@H]3[C@@H]4CCC5=CC(=O)CC[C@@H]5[C@H]4CC[C@@]32C)cc1` [17α-4'-N,N-Dimethylaminophenylmethyl-17-hydroxyestr-4-ene-3-one], in the experiment on lipid peroxidation, the pIC50 was under 5.00.

For `CN(C)c1ccc(C[C@]2(O)CC[C@H]3[C@@H]4CCc5cc(O)ccc5C4=CC[C@@]32C)cc1` [17α-4'-N,N-Dimethylaminophenylmethylestra-1,3,5(10),9(11)-tetraene-3,17-diol], the pIC50 in the experiment with lipid peroxidation was 5.68. On the same count and under the same terms, for `CN(C)c1ccc(C[C@]2(O)CC[C@H]3[C@@H]4CCc5cc(O)ccc5[C@H]4CC[C@@]32C)cc1` [17α-4'-N,N-Dimethylaminophenylmethylestra-1,3,5(10)-triene-3,17-diol] the value was 5.45; for `COc1ccc2c(c1)CC[C@@H]1[C@@H]2CC[C@@]2(C)[C@H]1CC[C@@]2(O)C[Se]c1ccc(N(C)C)cc1` [17α-4'-N,N-Dimethylaminophenylselenomethyl-3-methoxyestra-1,3,5(10)-triene-17-ol], 5.88; for `COC1(OC)CCC2=C(CC[C@@H]3[C@@H]2CC[C@@]2(C)[C@H]3CC[C@@]2(O)Cc2ccc(N(C)C)cc2)C1` [17α-4'-N,N-Dimethylphenylmethyl-3,3-dimethoxyestr-5(10)-ene-17-ol], 5.26. Consider `C[C@]12CC[C@@H]3c4ccc(O)cc4CC[C@H]3[C@@H]1CC[C@@H]2O` [17β-Estradiol, reference compound], for which the “LDL oxidation inhibition” value with LDL oxidation came to 40 min. Moreover, the pIC50 with lipid peroxidation is 4.91. The corresponding values for `C[C@]12CC[C@@H]3c4ccc(O)cc4CC[C@H]3[C@@H]1C[C@@H](O)[C@@H]2O` [Estriol, reference compound] are 20 min and 4.65. On to `Cc1c(C)c2c(c(C)c1O)CCC(C)(CN1CCN(c3cc(N4CCCC4)nc(N4CCCC4)n3)CC1)O2` (stereo not drawn) [Example U-78517F, reference compound], for which the “LDL oxidation inhibition” value with LDL oxidation is 20 min. As to Vitamin E [reference compound], the pIC50 with lipid peroxidation is 3.88.
